Assays:
MCF7 = experiment: Cytotoxicity against human MCF7 cells after 24 hrs by FACS analysis; assay type: functional, cell-based; conditions: MCF7, 24 h
A549 [1] = experiment: Inhibition of Akt phosphorylation in insulin-stimulated human A549 cells at 10 uM treated 2 hrs before insulin stimulation measured after 30 mins by ELISA; assay type: cell-based
[2] = Cytotoxicity against human KATO III cells after 24 hrs by FACS analysis; assay type: functional, cell-based, KATO III cell
A549 [3] = experiment: Cytotoxicity against human A549 cells after 24 hrs by FACS analysis; assay type: functional, cell-based; conditions: A549, 24 h
[4] = Inhibition of Akt phosphorylation in insulin-stimulated human A549 cells treated 2 hrs before insulin stimulation measured after 30 mins by ELISA; assay type: cell-based
A549 [5] = experiment: Ratio of erufosine IC50 to compound IC50 for inhibition of Akt phosphorylation in insulin-stimulated human A549 cells; assay type: cell-based
A549 [6] = experiment: Ratio of perifosine IC50 to compound IC50 for inhibition of Akt phosphorylation in insulin-stimulated human A549 cells; assay type: cell-based
A549 [7] = experiment: Ratio of miltefosine IC50 to compound IC50 for inhibition of Akt phosphorylation in insulin-stimulated human A549 cells; assay type: cell-based

Row | Structure (SMILES) | IC50 (MCF7) | inhibition (A549 [1]) | IC50 [2] | IC50 (A549 [3]) | IC50 [4] | Ratio IC50 (A549 [5]) | Ratio IC50 (A549 [6]) | Ratio IC50 (A549 [7])
1 | CCCCCCCCCCCCO[C@@H]1CCC[C@H]1COP(=O)([O-])OCC[N+](C)(C)C (racemic) | 14.7 µM | 31.7% | 10.4 µM | – | – | – | – | –
2 | CCCCCCCCCCCCCO[C@@H]1CCC[C@H]1COP(=O)([O-])OCC[N+](C)(C)C (racemic) | 17.8 µM | 40.8% | 10.1 µM | 9.4 µM | – | – | – | –
3 | CCCCCCCCCCCCCCCCCCCCOC[C@@H]1CCC[C@H]1OP(=O)([O-])OCC[N+](C)(C)C (racemic) | 10.8 µM | 74.4% | 8.7 µM | 6.4 µM | 3.6 µM | 3 | 2 | 3
4 | CCCCCCCCCCCCCO[C@H]1CCC[C@H]1COP(=O)([O-])OCC[N+](C)(C)C (racemic) | 10.7 µM | 44.7% | 12.1 µM | 10.2 µM | – | – | – | –
5 | CCCCCCCCCCCCCCCCCCOC[C@@H]1CCC[C@H]1OP(=O)([O-])OCC[N+](C)(C)C (racemic) | 13.8 µM | 63.4% | 10.4 µM | 10.8 µM | 10.3 µM | – | – | –
6 | CCCCCCCCCCCCCCCCCCOP(=O)([O-])OC1CC[N+](C)(C)CC1 [PERIFOSINE] | 13.3 µM | 68% | 12.8 µM | 7 µM | 5.3 µM | – | – | –
7 | CCCCCCCCCCCCCCCCCCCCO[C@H]1CCC[C@H]1COP(=O)([O-])OCC[N+](C)(C)C (racemic) | 16.3 µM | 54.4% | 8.8 µM | 9.7 µM | 16.3 µM | – | – | –
8 | CCCCCCCCCCCCCOC[C@@H]1CCC[C@H]1OP(=O)([O-])OCC[N+](C)(C)C (racemic) | 7.7 µM | 65.4% | 10.2 µM | 6.1 µM | 6.6 µM | – | – | –
9 | CCCCCCCCCCCCCCCCCCCCO[C@@H]1CCC[C@H]1COP(=O)([O-])OCC[N+](C)(C)C (racemic) | 15.6 µM | 58.9% | 7.7 µM | 9.8 µM | 9.1 µM | – | – | –
10 | CCCCCCCCCCCCCCCCCCO[C@@H]1CCC[C@H]1COP(=O)([O-])OCC[N+](C)(C)C (racemic) | 15.7 µM | 32.4% | 8.2 µM | 19.3 µM | – | – | – | –
11 | CCCCCCCCCCCCCCCCCCO[C@H]1CCC[C@H]1COP(=O)([O-])OCC[N+](C)(C)C (racemic) | 13.2 µM | 35.2% | 9.2 µM | 17.8 µM | – | – | – | –
12 | CCCCCCCCCCCCCCCCCCCCCCO[C@@H]1CCC[C@H]1COP(=O)([O-])OCC[N+](C)(C)C (racemic) | 19.5 µM | 68% | 17.6 µM | 11.1 µM | 6.5 µM | – | – | –
13 | CCCCCCCCCCCCO[C@H]1CCC[C@H]1COP(=O)([O-])OCC[N+](C)(C)C (racemic) | 24.2 µM | 30.4% | 7.4 µM | 26.3 µM | – | – | – | –
14 | CCCCCCCCCCCCCCCCCCCCCCO[C@H]1CCC[C@H]1COP(=O)([O-])OCC[N+](C)(C)C (racemic) | 12.8 µM | 36.2% | 8.6 µM | 23.3 µM | – | – | – | –
15 | CCCCCCCCCCCCOC[C@@H]1CCC[C@H]1OP(=O)([O-])OCC[N+](C)(C)C (racemic) | 11.8 µM | 36.2% | 10.6 µM | 11 µM | – | – | – | –
16 | CCCCCCCCCCCCCCCCCCCCCCOC[C@@H]1CCC[C@H]1OP(=O)([O-])OCC[N+](C)(C)C (racemic) | 16.3 µM | 58.2% | 11.9 µM | 16 µM | 10 µM | – | – | –
17 | CCCCCCCCCCCCCCCCOP(=O)([O-])OCC[N+](C)(C)C [MILTEFOSINE] | 11.4 µM | 56.3% | 12.1 µM | 9.7 µM | 9.6 µM | – | – | –
